Results published in article PMC12498388, “Niraparib Demonstrates Therapeutic Potential in Multiple Sclerosis through Inhibition of IL-17A Receptor Interaction and Promotion of Remyelination” (ACS Chemical Neuroscience, 2025).

How the values were obtained:
[1] = molecular target: T1, IL-17A with IL-17RA/IL-17RC receptor (HEK-Blue IL-17 reporter cells) (Homo sapiens, UniProt Q16552); assay: SEAP reporter assay in HEK-Blue IL-17 cells, QUANTI-Blue […] nm; type: cell-based; settings: IL-17A-stimulated cells, 37 °C overnight, 1 nM to 100 μM, four-parameter fit; indirect downstream reporter read-out (NF-kB/AP-1), binding site not shown experimentally
T1 construct: gene IL17A; IL-17A ligand supplied by the manufacturer, added to HEK 293 cells stably transfected with IL-17RA/IL-17RC heterodimeric receptor and Act1 adaptor; SEAP reporter (NF-kB/AP-1); with Interleukin-17 receptor A; Interleukin-17 receptor C

[2] = molecular target: IL-17RA/IL-17RC heterodimeric receptor (UniProt Q96F46)

IL-17A, sequence (Q16552 24-155): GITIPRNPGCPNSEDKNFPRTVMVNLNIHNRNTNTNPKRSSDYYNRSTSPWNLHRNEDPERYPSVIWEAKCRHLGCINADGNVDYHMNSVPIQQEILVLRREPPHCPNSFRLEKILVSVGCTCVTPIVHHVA

| Molecule | IC50 [1] [µM] | SEAP release of HEK-Blue IL-17 reporter cells (QUANTI-Blue, 630 nm) with IL-17A; percent inhibition by the small molecule Niraparib, 1 nM to 100 uM (22% at 1 uM, 51% at 10 uM, 99.3% at 100 uM) [2] [%] |
| --- | --- | --- |
| NC(=O)c1cccc2cn(-c3ccc([C@@H]4CCCNC4)cc3)nc12 [Niraparib] | 70 | – |
| IL-17A (from UniProt Q16552 24-155) (ligand) | – | 99.3 |
